This is an account of results in paper PMC12064818, “A general assay platform to study protein pharmacology using ligand-dependent structural dynamics” (Nature Communications, 2025).

Where only a bound is given, the exact number is not on record here.

This assay has as its target T1, FLuc-C-HiBiT (Photinus pyralis, UniProt P08659).
T1 construct: firefly luciferase with C-terminal HiBiT tag, E. coli expressed
The assay is described as follows: biochemical. The settings on record: enzyme activity, 10 uM ATP; read-out: IC50 or SDR50 (mM) / FLuc E.

T1 sequence (P08659 whole entry, looked up): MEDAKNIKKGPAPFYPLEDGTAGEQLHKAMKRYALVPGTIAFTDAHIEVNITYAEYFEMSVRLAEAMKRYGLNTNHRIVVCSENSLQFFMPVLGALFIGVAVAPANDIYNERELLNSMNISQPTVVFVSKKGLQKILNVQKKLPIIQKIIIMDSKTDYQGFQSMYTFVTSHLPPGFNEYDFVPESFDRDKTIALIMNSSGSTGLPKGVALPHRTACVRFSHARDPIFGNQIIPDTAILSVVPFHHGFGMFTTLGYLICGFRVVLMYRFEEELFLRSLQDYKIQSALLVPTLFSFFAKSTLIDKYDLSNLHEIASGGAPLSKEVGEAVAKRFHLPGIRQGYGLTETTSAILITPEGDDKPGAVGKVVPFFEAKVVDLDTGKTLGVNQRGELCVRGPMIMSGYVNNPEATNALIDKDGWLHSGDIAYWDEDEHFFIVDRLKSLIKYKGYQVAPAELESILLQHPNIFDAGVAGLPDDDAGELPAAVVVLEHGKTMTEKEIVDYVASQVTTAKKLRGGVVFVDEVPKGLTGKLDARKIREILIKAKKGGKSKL

For `CCN(c1ncnc2c1cnn2-c1ccc(C)cc1)C1CCCCC1` [NCGC00138994-01], the IC50 worked out at 0.000881 mM.
On to `CN1c2cc(C(=O)Nc3ccc4c(c3)OCCO4)ccc2C(=O)N2CCCCC21` (centres unmarked) [NCGC00452420-01], for which the IC50 was 0.00989 mM.
Then `Fc1ccc2[nH]c([C@H]3CCN(Cc4ccccc4F)C3)nc2c1` [NCGC00391187-01], with 0.0143 mM; and `CCC(=O)Nc1ccc2nnc(-c3ccc(C(=O)Nc4ccc5c(c4)OCCO5)cc3)n2c1` [NCGC00429833-01], with 0.00881 mM; and `O=C1C[C@H]2CC[C@@H](CN1)N2Cc1ccc(OCc2ccccc2)cc1` [NCGC00434033-01], with 0.014 mM.
In the case of `COc1ccc(CC(=O)Nc2ccc(-c3nc4ccccc4s3)cc2Cl)cc1` [NCGC00137808-01], the IC50 was above 0.03 mM.
Then `COc1cccc(C(=O)Nc2ccccc2-c2nc3ccccc3s2)c1` [NCGC00102557-01], with above 0.03 mM; and `CC(=O)NC1CCN(Cc2cn(-c3ccc(C)cc3)nc2-c2cccc(C)c2)C1` (centres unmarked) [NCGC00437791-01], with 0.014 mM; and `Cc1ccc(-c2nc3ccccc3s2)cc1NC(=O)COc1ccccc1` [NCGC00098596-01], with above 0.03 mM.
The figure for `Cc1nn(-c2cccc(Br)c2)c(C)c1[C@@H]1C=C[C@@H](NC(=O)CC(C)(C)CC(=O)O)C1` [NCGC00401591-01] is above 0.03 mM; for `COc1ccc(NC(=O)Nc2ccc(C)n(CC(=O)NCC(C)C)c2=O)cc1` [NCGC00430836-01] it is 0.00351 mM; for `Cc1c(C(=O)Nc2cccc(-c3nc4ccccc4s3)c2)oc2ccc(F)cc12` [NCGC00119183-01] it is above 0.03 mM.
For `OCC1CCN(c2ncnc3c2cnn3-c2ccccc2)CC1` [NCGC00608116-01], the IC50 was found to be 0.0124 mM.
The figure for `Cc1cc2c(c(-c3nc4ccccc4s3)c1)OC(CNC(=O)c1occc1C)C2` (centres unmarked) [NCGC00240406-01] is 0.0124 mM; for `NC(=O)C1CCCN(c2ncnc3c2cnn3-c2ccccc2)C1` (centres unmarked) [NCGC00644764-01] it is 0.0111 mM.
The figure for `CCOc1ccc(C(=O)Nc2ccc(-c3nc4ccccc4s3)c(C)c2)cc1OCC` [NCGC00137842-01] is above 0.03 mM; for `O=C(Nc1cccc(Cl)c1)c1cc(-c2ccc3c(c2)OCCO3)on1` [NCGC00118845-01] it is 0.000624 mM.
Regarding `NC(=O)COC(=O)c1ccccc1-c1nc2ccccc2s1` [NCGC00641952-01], the IC50 was above 0.03 mM.
Then `O=C(Nc1cccc(Br)c1)c1cc(-c2ccc3c(c2)OCCO3)on1` [NCGC00118911-01], with 0.000989 mM; and `CNc1nc(C(=O)NCc2ccc3[nH]c(-c4ccc(F)cc4)c(C)c3c2)cs1` [NCGC00443141-01], with 0.0111 mM; and `CCc1ccc(C2=CC(c3cccc(C)c3)n3c(nc4ccccc43)N2)cc1` (centres unmarked) [NCGC00140745-01], with 0.000881 mM.
Then `Cc1nccn1CCN(C)c1ccc(-c2nc(COc3ccccc3)no2)cn1` [NCGC00428976-01], with 0.00989 mM; and `Cc1cc(C)cc(Nc2nc(-c3ccccc3F)no2)c1` [NCGC00422314-01], with 0.00624 mM.
Then `Cc1ccc(-n2ncc3c(N4CCC(Cc5ccccc5)CC4)ncnc32)cc1` [NCGC00139020-01], with above 0.03 mM.
As for `CCOc1ccc(-c2cc(CCCC(=O)NCCc3ccc(OCC)c(OCC)c3)no2)cc1` [NCGC00110850-01], the IC50 amounted to 0.00351 mM.
In the case of `O=C(c1ccccn1)N1CCC(Oc2ccc(-c3noc(-c4ccccc4)n3)cc2)C1` (centres unmarked) [NCGC00441001-01], the IC50 was determined as 0.0111 mM.
For `CCCN1C(=O)c2ccc(-c3nc4ccccc4s3)cc2C1=O` [NCGC00597617-01], the IC50 worked out at 0.00197 mM.
The figure for `COc1ccc(CC(=O)Nc2ccc(-c3nc4ccccc4s3)c(C)c2)cc1` [NCGC00137836-01] is above 0.03 mM.
Then `Cc1c(N[S+](C)(=O)[O-])cccc1-c1nc2ccccc2s1` [NCGC00118990-01], with 0.00989 mM; and `COc1ccc(-c2cccc(COc3cnc4c(ccn4CC(=O)O)c3)c2)c(C)c1` [NCGC00418229-01], with above 0.03 mM.
Then `CCOc1ccc(C(=O)Nc2cc(-c3nc4cc(OC)ccc4o3)ccc2C)cc1[N+](=O)[O-]` [NCGC00103318-01], with 0.00785 mM; and `CCOc1ccc(-c2cn3nc(CC(C)C)sc3n2)cc1` [NCGC00117462-01], with 0.00495 mM; and `OC1CN(Cc2ccc(-c3cnc4c(OCc5ccccc5)nccn34)cc2)C1` [NCGC00414051-01], with 0.0202 mM.
On to `Cc1ccc(CNC(=O)Nc2cccc(-c3ccc(N4CCOCC4)nn3)c2)cc1` [NCGC00427596-01], for which the IC50 is 0.00279 mM.
The figure for `Brc1ccccc1-c1nc(-c2ccccc2)no1` [NCGC00075547-01] is 0.00351 mM; for `O=C(Nc1nc2c(s1)CCCC2)c1ccccc1F` [NCGC00118438-01] it is 0.000556 mM; for `O=C(Nc1ccccc1)c1nc2c(o1)CCN(Cc1cccnc1)CC2` [NCGC00413263-01] it is 0.0057 mM.
The figure for `Fc1cccc(-c2cnc(Nc3ccc(N4CCOCC4)cc3)c3c2CCO3)c1` [NCGC00412721-01] is 0.0161 mM; for `Cc1ccc(C(=O)Nc2onc3c2CCCC3)cc1` [NCGC00115902-01] it is 0.000989 mM.
Then `CC1CCN(c2ncnc3c2cnn3-c2ccccc2)CC1` [NCGC00081403-02], with 0.00624 mM; and `Cc1ccc(-c2cc3c(=O)n(CCNC(=O)C4CCCCC4)ccn3n2)c(C)c1` [NCGC00456958-01], with 0.00248 mM.
As for `CC(CCc1ccc(O)cc1)N1CCOc2c(O)cc(-c3nc4ccccc4s3)cc2C1` (centres unmarked) [NCGC00240078-01], the IC50 was above 0.03 mM.
The figure for `Cc1ccc(CSc2nc3cccnc3n2Cc2ccc(C(=O)NC3CC3)cc2)cc1` [NCGC00123844-01] is 0.000394 mM.
Then `COc1ccc(-c2nc3ccccc3s2)cc1NC(=O)COc1ccccc1C` [NCGC00103036-01], with above 0.03 mM; and `CCN1c2cc(C(=O)Nc3ccc4c(c3)OCCO4)ccc2C(=O)N2CCCCCC21` (centres unmarked) [NCGC00452264-01], with 0.00989 mM; and `COCC(C)Nc1ncnc2c1cnn2-c1cccc(Cl)c1` (centres unmarked) [NCGC00139080-01], with 0.0111 mM.
Consider `O=C(O)C1CN(Cc2ccc(-c3nc4cc(Cc5ccccc5F)ccc4s3)c(F)c2)C1` [NCGC00379113-01], for which the IC50 was above 0.03 mM.
Then `Cc1csc(NC(=O)c2nc3c(o2)CCN(Cc2cccc(F)c2)CC3)n1` [NCGC00413280-01], with 0.0143 mM; and `COc1ccc2nc(-c3ccc(Oc4ccccc4)cc3)sc2c1` [NCGC00167605-01], with 0.0111 mM.
With `CCNC(=O)C1C(c2cccc(NC(=O)c3ccc(C)cc3)c2)OC(=O)N1Cc1ccc(F)cc1` (centres unmarked) [NCGC00473984-01], the IC50 amounted to 0.00176 mM.
Regarding `C[S+](=O)([O-])Nc1ccc(-c2nc3ccccc3s2)cc1` [NCGC00118996-01], the IC50 was found to be 0.00221 mM.
The figure for `Cc1cc(-c2nc3cc(F)ccc3s2)ccc1N` [NCGC00402259-04] is 0.00111 mM; for `CCCN1CCc2nc(C(=O)Nc3ccccc3)oc2CC1` [NCGC00413331-01] it is 0.018 mM.
The figure for `CCN(c1ncnc2c1cnn2-c1cccc(Cl)c1)C1CCCCC1` [NCGC00139112-01] is 0.00556 mM; for `CC(C)c1nc(C2Cc3ccccc3N2C(=O)NC2CCCC2)no1` (centres unmarked) [NCGC00471499-01] it is 0.014 mM; for `CCCC(=O)Nc1cnc(-c2ccc(C)cc2)nc1` [NCGC00432897-01] it is 0.00351 mM.
